Counter-ions that a name gives are not always drawn.
Row | SMILES | melting point [°C]
1 | Cc1cc(-c2nc3cccnn3c2-c2ccnc(NC(=O)NCCCCO)c2)ccc1F.Cl | 188 to 189
2 | Cc1cc(-c2nc3cccnn3c2-c2ccnc(NC(=O)N3CCOCC3)c2)ccc1F.Cl | 164 to 166
3 | Cc1cc(-c2nc3cccnn3c2-c2ccnc(NC(=O)N3CCC(O)CC3)c2)ccc1F.Cl | 156 to 157
4 | Cc1cc(-c2nc3cccnn3c2-c2ccnc(NC(=O)c3ccc(Cl)cc3)c2)ccc1F.Cl | 264 to 266
5 | COc1ccc(C(=O)Nc2cc(-c3c(-c4cccc(Cl)c4)nc4cccnn34)ccn2)cc1.Cl | 236 to 238
6 | Cc1cc(-c2nc3cccnn3c2-c2ccnc(NC(=O)c3ccc(Cl)nc3)c2)ccc1F.Cl | 250 to 251
7 | Cc1cc(-c2nc3cccnn3c2-c2ccnc(NC(=O)c3ccc(Cl)cc3)c2)ccc1F (as salt: methanesulfonate) [Example 62, 4-Chloro-N-{4-[2-(4-fluoro-3-methylphenyl)imidazo[1,2-b]pyridazin-3-yl]pyridin-2-yl}benzamide methanesulfonate] | 239 to 241
8 | COc1ccc2nc(-c3cccc(C)c3)c(-c3ccnc(NC4CCCCC4)c3)n2n1 [Example 9, N-Cyclohexyl-4-[6-methoxy-2-(3-methylphenyl)imidazo[1,2-b]pyridazin-3-yl]pyridin-2-amine] | 188 to 189
9 | CSc1ccc2nc(-c3cccc(C)c3)c(-c3ccnc(NC4CCCCC4)c3)n2n1 [Example 10, N-Cyclohexyl-4-[2-(3-methylphenyl)-6-(methylthio)imidazo[1,2-b]pyridazin-3-yl]pyridin-2-amine] | 150 to 151
10 | Cc1cccc(-c2nc3ccc(S(C)(=O)=O)nn3c2-c2ccnc(NC3CCCCC3)c2)c1 [Example 11, N-Cyclohexyl-4-[2-(3-methylphenyl)-6-(methylsulfonyl)imidazo[1,2-b]pyridazin-3-yl]pyridin-2-amine] | 196 to 197
11 | Cc1cccc(-c2nc3ccc(Cl)nn3c2-c2ccnc(N)c2)c1 [Example 12, 4-[6-Chloro-2-(3-methylphenyl)imidazo[1,2-b]pyridazin-3-yl]pyridin-2-amine] | 247 to 248
12 | Cc1cccc(-c2nc3cccnn3c2-c2ccnc(N)c2)c1 [Example 14, 4-[2-(3-Methylphenyl)imidazo[1,2-b]pyridazin-3-yl]pyridin-2-amine] | 188 to 189
13 | COc1ccc(C(=O)Nc2cc(-c3c(-c4cccc(C)c4)nc4ccc(Cl)nn34)ccn2)cc1 [Example 18, N-{4-[6-Chloro-2-(3-methylphenyl)imidazo[1,2-b]pyridazin-3-yl]pyridin-2-yl}-4-methoxybenzamide] | 204 to 205
14 | CCC(=O)N(C(=O)CC)c1cc(-c2c(-c3cccc(C)c3)nc3cccnn23)ccn1 [Example 22, N-{4-[2-(3-Methylphenyl)imidazo[1,2-b]pyridazin-3-yl]pyridin-2-yl}-N-propionylpropanamide] | 210 to 211
15 | Cc1cccc(-c2nc3cccnn3c2-c2ccnc(NC(=O)C(C)O)c2)c1 (centres unmarked) [Example 29, 2-Hydroxy-N-{4-[2-(3-methylphenyl)imidazo[1,2-b]pyridazin-3-yl]pyridin-2-yl}propanamide] | 223 to 224
16 | Cc1cccc(-c2nc3cccnn3c2-c2ccnc(NC(=O)N3CCCCC3)c2)c1 [Example 31, N-{4-[2-(3-Methylphenyl)imidazo[1,2-b]pyridazin-3-yl]pyridin-2-yl}piperidine-1-carboxamide] | 173 to 175
17 | Cc1cccc(-c2nc3ccc(Cl)nn3c2-c2ccnc(N)n2)c1 [Example 34, 4-[6-Chloro-2-(3-methylphenyl)imidazo[1,2-b]pyridazin-3-yl]-2-pyrimidinamine] | 237 to 238
18 | Cc1cccc(-c2nc3cccnn3c2-c2ccnc(NCC3CCCCC3)c2)c1 [Example 38, N-(Cyclohexylmethyl)-4-[2-(3-methylphenyl)imidazo[1,2-b]pyridazin-3-yl]pyridin-2-amine] | 128 to 130
19 | O=C(Nc1cc(-c2c(-c3ccc(F)cc3)nc3cccnn23)ccn1)c1ccncc1 [Example 40-1, N-{4-[2-(4-fluorophenyl)imidazo[1,2-b]pyridazin-3-yl]pyridin-2-yl}isonicotinamide] | 226 to 227
20 | O=C(Nc1cc(-c2c(-c3ccc(F)cc3)nc3cccnn23)ccn1)c1ccc(Cl)nc1 [Example 40-2, 6-chloro-N-{4-[2-(4-fluorophenyl)imidazo[1,2-b]pyridazin-3-yl]pyridin-2-yl}nicotinamide] | 247 to 248

Next, values leading:

Row | melting point [°C] | SMILES
21 | 235 to 236 | Cc1cc(-c2nc3c(C)cc(Cl)nn3c2-c2ccnc(NC(=O)c3ccc(F)cc3)c2)ccc1F [Example 41-2, N-{4-[6-chloro-2-(4-fluoro-3-methylphenyl)-8-methylimidazo[1,2-b]pyridazin-3-yl]-2-pyridyl}-4-fluorobenzamide]
22 | 181 to 182 | Cc1cc(-c2nc3cc(C(C)(C)C)c(Cl)nn3c2-c2ccnc(NC(=O)c3ccc(F)cc3)c2)ccc1F [Example 41-3, N-{4-[7-tert-butyl-6-chloro-2-(4-fluoro-3-methylphenyl)imidazo[1,2-b]pyridazin-3-yl]-2-pyridyl}-4-fluorobenzamide]
23 | 243 to 244 | Cc1cc(-c2nc3c(C)ccnn3c2-c2ccnc(NC(=O)c3ccc(F)cc3)c2)ccc1F [Example 41-4, N-{4-[2-(4-fluoro-3-methylphenyl)-8-methylimidazo[1,2-b]pyridazin-3-yl]-2-pyridyl}-4-fluorobenzamide]
24 | 201 to 202 | Cc1cc(-c2nc3cc(C(C)(C)C)cnn3c2-c2ccnc(NC(=O)c3ccc(F)cc3)c2)ccc1F [Example 41-5, N-{4-[7-tert-butyl-2-(4-fluoro-3-methylphenyl)imidazo[1,2-b]pyridazin-3-yl]-2-pyridyl}-4-fluorobenzamide]
25 | 220 to 221 | Cc1cc(-c2nc3cccnn3c2-c2ccnc(NC(=O)CC(F)(F)F)c2)ccc1F [Example 42-1, 3,3,3-trifluoro-N-{4-[2-(4-fluoro-3-methylphenyl)imidazo[1,2-b]pyridazin-3-yl]pyridin-2-yl}propanamide]
26 | 214 to 215 | Cc1cc(-c2nc3cccnn3c2-c2ccnc(NC(=O)C(C)C)c2)ccc1F [Example 42-2, N-{4-[2-(4-fluoro-3-methylphenyl)imidazo[1,2-b]pyridazin-3-yl]pyridin-2-yl}-2-methylpropanamide]
27 | 181 to 183 | CCCC(=O)Nc1cc(-c2c(-c3ccc(F)c(C)c3)nc3cccnn23)ccn1 [Example 42-4, N-{4-[2-(4-fluoro-3-methylphenyl)imidazo[1,2-b]pyridazin-3-yl]pyridin-2-yl}butanamide]
28 | 158 to 159 | CSCCC(=O)Nc1cc(-c2c(-c3ccc(F)c(C)c3)nc3cccnn23)ccn1 [Example 42-5, N-{4-[2-(4-fluoro-3-methylphenyl)imidazo[1,2-b]pyridazin-3-yl]pyridin-2-yl}-3-(methylthio)propanamide]
29 | 208 to 209 | Cc1cc(-c2nc3cccnn3c2-c2ccnc(NC(=O)c3ccc(Cl)cc3)c2)ccc1F [Example 42-7, 4-chloro-N-{4-[2-(4-fluoro-3-methylphenyl)imidazo[1,2-b]pyridazin-3-yl]pyridin-2-yl}benzamide]

— patent publication US20080167314A1, “Condensed Imidazole Compound And Use Thereof” (priority 2004, published 2008)
